The results in this text go back to patent US10004701B2, “Methods and compositions for treating infection” (UNIVERSITY OF ROCHESTER, priority 2012, dated 2018).

Where a name gives a salt, the structure may show the parent alone. Read-outs that look alike come from different tables or passages of the source.

Assay in all cases: AK assay 384-well format, Prestwick library screening
The test system of one test is E. coli. It is filed as cell-based, Escherichia coli. The following applies: Escherichia coli, 3 h, 50 μM final drug concentration.
A further test has as its system E. cloacae. The test is classed as cell-based, Enterobacter cloacae. The conditions noted are these: Enterobacter cloacae, 3 h, 50 μM final drug concentration.
A further test deals with E. faecium. The test is classed as cell-based, Enterococcus faecium. The following applies: Enterococcus faecium, 3 h, 50 μM final drug concentration.
In test [1] the test system is S. aureus strain USA300-0114. The test is classed as cell-based, Staphylococcus aureus. The conditions noted are these: Staphylococcus aureus, USA300, 3 h, 50 μM final drug concentration.
The subject of the next test is K. pneumoniae. The test is classed as cell-based, Klebsiella pneumoniae. The conditions noted are these: Klebsiella pneumoniae, 3 h, 50 μM final drug concentration.
Another test concerns P. aeruginosa. It is filed as cell-based, Pseudomonas aeruginosa. The following applies: Pseudomonas aeruginosa, 3 h, 50 μM final drug concentration.
Test [2] relates to A. baumannii strain 98-37-09. The test is classed as cell-based, Acinetobacter baumannii. The conditions noted are these: Acinetobacter baumannii, 983709, 3 h, 50 μM final drug concentration.
The mark [3] stands for this setting: cutoff for positive-scoring molecules 3-fold increase, read-out: AK-based Prestwick Library Screening Results, E. coli (fold increase in extracellular AK activity).
The mark [4] stands for this setting: cutoff for positive-scoring molecules 3-fold increase, read-out: AK-based Prestwick Library Screening Results, E. cloacae (fold increase in extracellular AK activity).
[5] abbreviates: cutoff for positive-scoring molecules 3-fold increase, read-out: AK-based Prestwick Library Screening Results, E. faecium (fold increase in extracellular AK activity).
[6] abbreviates: cutoff for positive-scoring molecules 3-fold increase, read-out: AK-based Prestwick Library Screening Results, S. aureus (fold increase in extracellular AK activity).
Where [7] appears, read: cutoff for positive-scoring molecules 3-fold increase, read-out: AK-based Prestwick Library Screening Results, K. pneumoniae (fold increase in extracellular AK activity).
The mark [8] stands for this setting: cutoff for positive-scoring molecules 3-fold increase, read-out: AK-based Prestwick Library Screening Results, P. aeruginosa (fold increase in extracellular AK activity).
[9] abbreviates: cutoff for positive-scoring molecules 3-fold increase, read-out: AK-based Prestwick Library Screening Results, A. baumannii (fold increase in extracellular AK activity).

In the case of `O=C(NCCN1CCOCC1)c1ccc(Cl)cc1` [Moclobemide], the fold induction at 50 µM is 0.9 with E. coli (planktonic E. coli, cutoff for positive-scoring molecules 3-fold increase, read-out: AK-based Prestwick Library Screening Results, E. coli (increase in extracellular AK activity)); 1.2 in the test with E. cloacae (planktonic E. cloacae, cutoff for positive-scoring molecules 3-fold increase, read-out: AK-based Prestwick Library Screening Results, E. cloacae (increase in extracellular AK activity)); 0.9 in the test on E. faecium (planktonic E. faecium, cutoff for positive-scoring molecules 3-fold increase, read-out: AK-based Prestwick Library Screening Results, E. faecium (increase in extracellular AK activity)); 0.6 in test [1] (planktonic S. aureus, cutoff for positive-scoring molecules 3-fold increase, read-out: AK-based Prestwick Library Screening Results, S. aureus (increase in extracellular AK activity)); 0.6 in the test on K. pneumoniae (planktonic K. pneumoniae, cutoff for positive-scoring molecules 3-fold increase, read-out: AK-based Prestwick Library Screening Results, K. pneumoniae (increase in extracellular AK activity)); 0.8 in the test on P. aeruginosa (planktonic P. aeruginosa, cutoff for positive-scoring molecules 3-fold increase, read-out: AK-based Prestwick Library Screening Results, P. aeruginosa (increase in extracellular AK activity)). In addition, the fold induction at 50 µM in test [2] (planktonic A. baumannii, cutoff for positive-scoring molecules 3-fold increase, read-out: AK-based Prestwick Library Screening Results, A. baumannii (increase in extracellular AK activity)) turned out to be 0.7.

On to `NCCc1cc[nH]n1` [Betazole hydrochloride], for which the fold induction at 50 µM in the test on E. coli (384-well format, cutoff for positive-scoring molecules 3-fold increase, read-out: AK-based Prestwick Library Screening Results, E. coli (increase in extracellular AK activity)) came to 1.3; in the test on E. cloacae (384-well format, cutoff for positive-scoring molecules 3-fold increase, read-out: AK-based Prestwick Library Screening Results, E. cloacae (increase in extracellular AK activity)) it was 1.4; in the test on E. faecium (384-well format, cutoff for positive-scoring molecules 3-fold increase, read-out: AK-based Prestwick Library Screening Results, E. faecium (increase in extracellular AK activity)) it was 1; in test [1] (384-well format, cutoff for positive-scoring molecules 3-fold increase, read-out: AK-based Prestwick Library Screening Results, S. aureus (increase in extracellular AK activity)) it was 1.2; in the test on K. pneumoniae (384-well format, cutoff for positive-scoring molecules 3-fold increase, read-out: AK-based Prestwick Library Screening Results, K. pneumoniae (increase in extracellular AK activity)), 0.9; with P. aeruginosa (384-well format, cutoff for positive-scoring molecules 3-fold increase, read-out: AK-based Prestwick Library Screening Results, P. aeruginosa (increase in extracellular AK activity)) it was 1. Besides, in test [2] (384-well format, cutoff for positive-scoring molecules 3-fold increase, read-out: AK-based Prestwick Library Screening Results, A. baumannii (increase in extracellular AK activity)), the fold induction at 50 µM was determined as 1.2.

`CC(Cc1ccc(O)cc1)NCC(O)c1cc(O)cc(O)c1` (stereo not shown) [Fenoterol hydrobromide]: the fold induction at 50 µM in the test on E. coli (planktonic E. coli, 384-well, […], read-out: AK-based Prestwick Library Screening Results: E. coli (increase in extracellular AK activity)) was found to be 1.3; with E. cloacae (planktonic E. cloacae, 384-well, […], read-out: AK-based Prestwick Library Screening Results: E. cloacae (increase in extracellular AK activity)) it was 1.4; with E. faecium (planktonic E. faecium, 384-well, […], read-out: AK-based Prestwick Library Screening Results: E. faecium (increase in extracellular AK activity)) it was 1.1; in test [1] (planktonic S. aureus, 384-well, […], read-out: AK-based Prestwick Library Screening Results: S. aureus (increase in extracellular AK activity)), 1; in the test on K. pneumoniae (planktonic K. pneumoniae, 384-well, […], read-out: AK-based Prestwick Library Screening Results: K. pneumoniae (increase in extracellular AK activity)), 0.9; with P. aeruginosa (planktonic P. aeruginosa, 384-well, […], read-out: AK-based Prestwick Library Screening Results: P. aeruginosa (increase in extracellular AK activity)), 1.1. The fold induction at 50 µM in test [2] (planktonic A. baumannii, 384-well, […], read-out: AK-based Prestwick Library Screening Results: A. baumannii (increase in extracellular AK activity)) stood at 1.3.

In the case of `CNNCc1ccc(C(=O)NC(C)C)cc1` [Procarbazine hydrochloride], the fold induction at 50 µM with E. coli (planktonic E. coli, positive cutoff 3-fold increase, read-out: AK-based Prestwick library screening result, E. coli (fold increase in extracellular AK activity)) stood at 1; in the test with E. cloacae (planktonic E. cloacae, positive cutoff 3-fold increase, read-out: AK-based Prestwick library screening result, E. cloacae (fold increase in extracellular AK activity)), 1.7; in the test with E. faecium (planktonic E. faecium, positive cutoff 3-fold increase, read-out: AK-based Prestwick library screening result, E. faecium (fold increase in extracellular AK activity)) it was 1; in test [1] (planktonic S. aureus, positive cutoff 3-fold increase, read-out: AK-based Prestwick library screening result, S. aureus (fold increase in extracellular AK activity)), 1.1; in the test with K. pneumoniae (planktonic K. pneumoniae, positive cutoff 3-fold increase, read-out: AK-based Prestwick library screening result, K. pneumoniae (fold increase in extracellular AK activity)), 1.1; in the test with P. aeruginosa (planktonic P. aeruginosa, positive cutoff 3-fold increase, read-out: AK-based Prestwick library screening result, P. aeruginosa (fold increase in extracellular AK activity)), 0.9. Further, the fold induction at 50 µM in test [2] (planktonic A. baumannii, positive cutoff 3-fold increase, read-out: AK-based Prestwick library screening result, A. baumannii (fold increase in extracellular AK activity)) is 1.1.

Turning to `CC[N+](CC)(CC)CCOc1cccc(OCC[N+](CC)(CC)CC)c1OCC[N+](CC)(CC)CC` [Gallamine triethiodide], the fold induction at 50 µM in the test with E. coli (planktonic E. coli, 384-well, cutoff for positive-scoring molecules 3-fold increase, read-out: AK-based Prestwick Library Screening Results: E. coli (increase in extracellular AK activity)) was found to be 1.3; in the test with E. cloacae (planktonic E. cloacae, 384-well, cutoff for positive-scoring molecules 3-fold increase, read-out: AK-based Prestwick Library Screening Results: E. cloacae (increase in extracellular AK activity)), 1.5; in the test with E. faecium (planktonic E. faecium, 384-well, cutoff for positive-scoring molecules 3-fold increase, read-out: AK-based Prestwick Library Screening Results: E. faecium (increase in extracellular AK activity)) it was 1; in test [1] (planktonic S. aureus, 384-well, cutoff for positive-scoring molecules 3-fold increase, read-out: AK-based Prestwick Library Screening Results: S. aureus (increase in extracellular AK activity)), 1.1; in the test on K. pneumoniae (planktonic K. pneumoniae, 384-well, cutoff for positive-scoring molecules 3-fold increase, read-out: AK-based Prestwick Library Screening Results: K. pneumoniae (increase in extracellular AK activity)), 1.1; in the test on P. aeruginosa (planktonic P. aeruginosa, 384-well, cutoff for positive-scoring molecules 3-fold increase, read-out: AK-based Prestwick Library Screening Results: P. aeruginosa (increase in extracellular AK activity)), 1. Moreover, the fold induction at 50 µM in test [2] (planktonic A. baumannii, 384-well, cutoff for positive-scoring molecules 3-fold increase, read-out: AK-based Prestwick Library Screening Results: A. baumannii (increase in extracellular AK activity)) turned out to be 1.2.

Take `NS(=O)(=O)c1cc(C(=O)O)cc(N2CCCC2)c1Oc1ccccc1` [Piretanide]: the fold induction at 50 µM in the test on E. coli (setting [3]) was 0.5; in the test on E. cloacae (setting [4]) it was 0.4; in the test with E. faecium (setting [5]), 0.8; in test [1] (setting [6]), 0.4; in the test with K. pneumoniae (setting [7]), 0.5; in the test on P. aeruginosa (setting [8]) it was 0.4. Besides, in test [2] (setting [9]), the fold induction at 50 µM is 0.4.

Consider `CC(=O)[C@@]1(O)CC[C@H]2[C@@H]3C[C@H](C)C4=CC(=O)C=C[C@]4(C)[C@@]3(F)[C@@H](O)C[C@@]21C` [Fluorometholone], for which the fold induction at 50 µM worked out at 1.1 in the test with E. coli (setting [3]); 1.7 in the test with E. cloacae (setting [4]); 1 in the test with E. faecium (setting [5]); 1.2 in test [1] (setting [6]); 1 with K. pneumoniae (setting [7]); 1.1 in the test with P. aeruginosa (setting [8]). For the same compound, the fold induction at 50 µM in test [2] (setting [9]) was 1.3.
